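Cultured in 96-well plates, cells were exposed to test compound for 48 hours across five concentrations. GI50 is the concentration that inhibits growth by half.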 Activity calls are given as the source filed them. Cut-off read from the data, not from the text of the source: active = GI50 up to about 1.1 µM and inactive = higher.
Assays:
Assay in all cases: inhibition of tumour cell growth, NCI panel, 48 h
[1] = system: MDA-N
[2] = system: SF-268
[3] = system: SW-620
[4] = system: HCT-15
[5] = system: NCI-H23
[6] = system: Malme-3M
[7] = system: SNB-19
[8] = system: SF-539
[9] = system: KM12
[10] = system: MDA-MB-435
[11] = system: TK-10
[12] = system: MOLT-4
[13] = system: COLO 205
[14] = system: HL-60
[15] = system: EKVX
[16] = system: NCI-H460
[17] = system: OVCAR-8
[18] = system: 786-0
[19] = system: CAKI-1
[20] = system: DU-145
[21] = system: K562
[22] = system: SF-295
[23] = system: NCI-H226
[24] = system: T47D
[25] = system: OVCAR-4
[26] = system: UO-31
[27] = system: RPMI-8226
[28] = system: SN12C
[29] = system: UACC-257
[30] = system: CCRF-CEM
[31] = system: SNB-75
[32] = system: SK-MEL-5
[33] = system: SK-MEL-2
[34] = system: UACC-62
[35] = system: BT-549
[36] = system: PC-3
[37] = system: SK-MEL-28
[38] = system: NCI/ADR-RES
[39] = system: HOP-62
[40] = system: HCT-116
[41] = system: OVCAR-3
[42] = system: ACHN
[43] = system: OVCAR-5
[44] = system: A498
[45] = system: MDA-MB-231
[46] = system: U-251
[47] = system: Hs-578T
[48] = system: M14
[49] = system: SR
[50] = system: A549
[51] = system: HT-29
[52] = system: HOP-92
[53] = system: MCF7
[54] = system: NCI-H522
[55] = system: LOX IMVI
[56] = system: RXF 393
[57] = system: SK-OV-3
[58] = system: IGROV-1

SMILES: COC(=O)[C@H]1[C@H](C(=O)OC)[C@@H](C)c2c(ccc3c2[nH]c2ccccc23)[C@@H]1C
- GI50 [1]: 90.8 µM (inactive)
- GI50 [2]: 48.9 µM (inactive)
- GI50 [3]: 95.1 µM (inactive)
- GI50 [4]: > 100 µM
- GI50 [5]: 41.2 µM (inactive)
- GI50 [6]: 49.8 µM (inactive)
- GI50 [7]: 56.4 µM (inactive)
- GI50 [8]: > 100 µM (inactive)
- GI50 [9]: 32.9 µM (inactive)
- GI50 [10]: > 100 µM (inactive)
- GI50 [11]: 26.4 µM (inactive)
- GI50 [12]: 0.3 µM (active)
- GI50 [13]: 66.7 µM (inactive)
- GI50 [14]: 5.81 µM (inactive)
- GI50 [15]: 69.8 µM (inactive)
- GI50 [16]: 36.8 µM (inactive)
- GI50 [17]: 46.3 µM (inactive)
- GI50 [18]: 21.2 µM (inactive)
- GI50 [19]: 68.4 µM (inactive)
- GI50 [20]: 41.5 µM (inactive)
- GI50 [21]: 0.9 µM (active)
- GI50 [22]: 18.6 µM (inactive)
- GI50 [23]: > 100 µM (inactive)
- GI50 [24]: 13 µM (inactive)
- GI50 [25]: 38.9 µM (inactive)
- GI50 [26]: > 100 µM (inactive)
- GI50 [27]: 11.8 µM (inactive)
- GI50 [28]: 13.2 µM (inactive)
- GI50 [29]: 19.4 µM (inactive)
- GI50 [30]: 22.4 µM (inactive)
- GI50 [31]: 19.7 µM (inactive)
- GI50 [32]: > 100 µM (inactive)
- GI50 [33]: 34.1 µM (inactive)
- GI50 [34]: > 100 µM (inactive)
- GI50 [35]: > 100 µM (inactive)
- GI50 [36]: 37.4 µM (inactive)
- GI50 [37]: > 100 µM (inactive)
- GI50 [38]: > 100 µM (inactive)
- GI50 [39]: 35.6 µM (inactive)
- GI50 [40]: 34.6 µM (inactive)
- GI50 [41]: 69.2 µM (inactive)
- GI50 [42]: 44.5 µM (inactive)
- GI50 [43]: > 100 µM (inactive)
- GI50 [44]: > 100 µM (inactive)
- GI50 [45]: 25.6 µM (inactive)
- GI50 [46]: 62.1 µM (inactive)
- GI50 [47]: 31.1 µM (inactive)
- GI50 [48]: 24.2 µM (inactive)
- GI50 [49]: 0.521 µM (active)
- GI50 [50]: 31.1 µM (inactive)
- GI50 [51]: 19.1 µM (inactive)
- GI50 [52]: 37.9 µM (inactive)
- GI50 [53]: 43.4 µM (inactive)
- GI50 [54]: 41.5 µM (inactive)
- GI50 [55]: 22.6 µM (inactive)
- GI50 [56]: 14.1 µM (inactive)
- GI50 [57]: 92.9 µM (inactive)
- GI50 [58]: 71.9 µM (inactive)

SMILES: O=CN1CCN(C(=O)c2ccco2)C1=S
- GI50 [1]: 7.62 µM (inactive)
- GI50 [2]: 7.05 µM (inactive)
- GI50 [3]: 5.82 µM (inactive)
- GI50 [4]: 7.83 µM
- GI50 [5]: 15.6 µM (inactive)
- GI50 [6]: 11.3 µM (inactive)
- GI50 [7]: 22.1 µM (inactive)
- GI50 [8]: 4.38 µM (inactive)
- GI50 [9]: 6.18 µM (inactive)
- GI50 [10]: 5.13 µM (inactive)
- GI50 [11]: 14.3 µM (inactive)
- GI50 [12]: 8.24 µM (inactive)
- GI50 [13]: 10.1 µM (inactive)
- GI50 [14]: 3.46 µM (inactive)
- GI50 [15]: 17.6 µM (inactive)
- GI50 [16]: 12.4 µM (inactive)
- GI50 [17]: 16 µM (inactive)
- GI50 [18]: 3.13 µM (inactive)
- GI50 [19]: 5.38 µM (inactive)
- GI50 [20]: 3.08 µM (inactive)
- GI50 [21]: 3.25 µM (inactive)
- GI50 [22]: 22.5 µM (inactive)
- GI50 [23]: 22.9 µM (inactive)
- GI50 [24]: 4.07 µM (inactive)
- GI50 [25]: 19.7 µM (inactive)
- GI50 [26]: 4.49 µM (inactive)
- GI50 [27]: 2.24 µM (inactive)
- GI50 [28]: 4.01 µM (inactive)
- GI50 [29]: 12.1 µM (inactive)
- GI50 [30]: 3.7 µM (inactive)
- GI50 [31]: 12.5 µM (inactive)
- GI50 [32]: 12.6 µM (inactive)
- GI50 [33]: 17.2 µM (inactive)
- GI50 [34]: 8.04 µM (inactive)
- GI50 [35]: 5.5 µM (inactive)
- GI50 [36]: 7.29 µM (inactive)
- GI50 [37]: 15.9 µM (inactive)
- GI50 [38]: 23.4 µM (inactive)
- GI50 [39]: 13.2 µM (inactive)
- GI50 [40]: 12.2 µM (inactive)
- GI50 [41]: 4.39 µM (inactive)
- GI50 [42]: 10 µM (inactive)
- GI50 [43]: 19.4 µM (inactive)
- GI50 [44]: 16.5 µM (inactive)
- GI50 [45]: 17.3 µM (inactive)
- GI50 [46]: 13.9 µM (inactive)
- GI50 [47]: 22 µM (inactive)
- GI50 [48]: 8.85 µM (inactive)
- GI50 [49]: 2.11 µM (inactive)
- GI50 [50]: 11.3 µM (inactive)
- GI50 [51]: 11.3 µM (inactive)
- GI50 [52]: 4.12 µM (inactive)
- GI50 [53]: 2.7 µM (inactive)
- GI50 [54]: 3.67 µM (inactive)
- GI50 [55]: 3.72 µM (inactive)
- GI50 [56]: 6.64 µM (inactive)
- GI50 [57]: 24.3 µM (inactive)
- GI50 [58]: 9.38 µM (inactive)

Reference: ChEMBL document CHEMBL1201862, “PubChem BioAssay data set” (2004)
